Publication PMC10404678, “A recombinant technique for mapping functional sites of heterotrimeric collagen helices: Collagen IV CB3 fragment as a prototype for integrin binding” (The Journal of Biological Chemistry, 2023)

How the values were obtained:
Test in all cases: fluorescence polarization competition with fluorescent BOP probe
Format in all cases: binding
integrin α2β1 ectodomain = target: T1, integrin α2β1 ectodomain (Homo sapiens, UniProt P05556+P17301)
T1 construct: gene ITGA2; ectodomain heterodimer; alpha with ACID coil and C-terminal StrepII tag, beta with BASE coil and His tag; Expi293 cells, separate pcDNA3.4 vectors

[1] = target: T2, integrin α11β1 ectodomain (Homo sapiens, UniProt P05556+Q9UKX5)
T2 construct: gene ITGA11; ectodomain heterodimer; continuous transcript alpha-GGGS-P2A-beta; alpha with ACID coil and C-terminal StrepII tag, beta with BASE coil and His tag; Expi293 cells; beta1 borders printed for the separate vector

integrin α1β1 ectodomain = target: T3, integrin α1β1 ectodomain (Homo sapiens, UniProt P05556+P56199)
T3 construct: gene ITGA1; ectodomain heterodimer; alpha with ACID coil and C-terminal StrepII tag, beta with BASE coil and His tag; Expi293 cells, separate pcDNA3.4 vectors

[2] = target: T4, integrin α10β1 ectodomain (Homo sapiens, UniProt O75578+P05556)
T4 construct: gene ITGA10; ectodomain heterodimer; continuous transcript alpha-GGGS-P2A-beta; alpha with ACID coil and C-terminal StrepII tag, beta with BASE coil and His tag; Expi293 cells; beta1 borders printed for the separate vector

integrin α3β1 = target: T5, integrin α3β1 (Homo sapiens, UniProt P05556+P26006)
T5 construct: gene ITGA3; purchased recombinant heterodimer (R&D Systems), extracellular domains

T2 sequence (Q9UKX5 23-1139): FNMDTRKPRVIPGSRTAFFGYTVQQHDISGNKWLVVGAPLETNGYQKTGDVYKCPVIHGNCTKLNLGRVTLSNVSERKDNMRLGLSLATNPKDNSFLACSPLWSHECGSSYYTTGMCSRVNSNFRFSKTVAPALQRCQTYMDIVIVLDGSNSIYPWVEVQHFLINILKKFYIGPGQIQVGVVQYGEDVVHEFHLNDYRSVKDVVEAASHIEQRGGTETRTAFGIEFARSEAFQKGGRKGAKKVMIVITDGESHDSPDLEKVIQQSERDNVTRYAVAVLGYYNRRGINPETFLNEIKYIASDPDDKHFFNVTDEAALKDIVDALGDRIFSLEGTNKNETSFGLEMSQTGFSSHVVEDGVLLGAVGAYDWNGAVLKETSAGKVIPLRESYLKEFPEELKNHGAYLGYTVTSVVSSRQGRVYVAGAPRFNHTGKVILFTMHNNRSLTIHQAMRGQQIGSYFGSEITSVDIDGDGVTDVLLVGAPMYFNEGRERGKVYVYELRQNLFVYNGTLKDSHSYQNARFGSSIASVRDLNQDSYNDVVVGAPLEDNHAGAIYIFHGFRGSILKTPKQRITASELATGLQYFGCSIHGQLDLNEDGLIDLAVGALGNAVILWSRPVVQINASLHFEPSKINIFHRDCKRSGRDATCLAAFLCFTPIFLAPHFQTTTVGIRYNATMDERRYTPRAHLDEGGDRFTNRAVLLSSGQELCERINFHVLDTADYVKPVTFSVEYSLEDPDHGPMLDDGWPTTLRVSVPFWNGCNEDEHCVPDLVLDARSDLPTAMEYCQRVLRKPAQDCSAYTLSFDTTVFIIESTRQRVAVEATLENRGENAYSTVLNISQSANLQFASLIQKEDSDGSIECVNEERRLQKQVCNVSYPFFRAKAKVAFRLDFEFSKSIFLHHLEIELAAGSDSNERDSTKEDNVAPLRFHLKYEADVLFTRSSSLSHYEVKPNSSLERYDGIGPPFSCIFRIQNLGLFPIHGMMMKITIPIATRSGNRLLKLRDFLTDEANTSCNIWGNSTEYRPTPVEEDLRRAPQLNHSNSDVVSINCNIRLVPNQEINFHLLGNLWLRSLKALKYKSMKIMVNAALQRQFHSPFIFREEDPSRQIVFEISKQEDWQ
T2 sequence (P05556 21-728): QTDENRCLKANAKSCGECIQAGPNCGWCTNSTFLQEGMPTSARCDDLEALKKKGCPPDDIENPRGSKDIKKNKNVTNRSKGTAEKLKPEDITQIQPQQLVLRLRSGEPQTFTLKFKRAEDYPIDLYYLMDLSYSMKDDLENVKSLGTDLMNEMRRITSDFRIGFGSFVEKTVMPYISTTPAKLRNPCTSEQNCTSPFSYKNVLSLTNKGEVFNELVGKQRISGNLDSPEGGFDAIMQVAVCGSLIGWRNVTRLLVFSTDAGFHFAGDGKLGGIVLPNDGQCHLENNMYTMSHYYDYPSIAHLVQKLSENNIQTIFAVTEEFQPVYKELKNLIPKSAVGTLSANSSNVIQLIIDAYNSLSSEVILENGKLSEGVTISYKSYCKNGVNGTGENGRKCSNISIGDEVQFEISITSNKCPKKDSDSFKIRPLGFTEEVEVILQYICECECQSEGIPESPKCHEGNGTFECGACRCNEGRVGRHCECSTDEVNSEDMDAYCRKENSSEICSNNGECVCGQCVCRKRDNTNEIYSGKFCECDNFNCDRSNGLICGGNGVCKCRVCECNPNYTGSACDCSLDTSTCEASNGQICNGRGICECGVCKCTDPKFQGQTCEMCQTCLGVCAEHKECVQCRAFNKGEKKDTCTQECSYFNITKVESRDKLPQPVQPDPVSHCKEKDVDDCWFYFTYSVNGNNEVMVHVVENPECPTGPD
T1 sequence (P17301 30-1129): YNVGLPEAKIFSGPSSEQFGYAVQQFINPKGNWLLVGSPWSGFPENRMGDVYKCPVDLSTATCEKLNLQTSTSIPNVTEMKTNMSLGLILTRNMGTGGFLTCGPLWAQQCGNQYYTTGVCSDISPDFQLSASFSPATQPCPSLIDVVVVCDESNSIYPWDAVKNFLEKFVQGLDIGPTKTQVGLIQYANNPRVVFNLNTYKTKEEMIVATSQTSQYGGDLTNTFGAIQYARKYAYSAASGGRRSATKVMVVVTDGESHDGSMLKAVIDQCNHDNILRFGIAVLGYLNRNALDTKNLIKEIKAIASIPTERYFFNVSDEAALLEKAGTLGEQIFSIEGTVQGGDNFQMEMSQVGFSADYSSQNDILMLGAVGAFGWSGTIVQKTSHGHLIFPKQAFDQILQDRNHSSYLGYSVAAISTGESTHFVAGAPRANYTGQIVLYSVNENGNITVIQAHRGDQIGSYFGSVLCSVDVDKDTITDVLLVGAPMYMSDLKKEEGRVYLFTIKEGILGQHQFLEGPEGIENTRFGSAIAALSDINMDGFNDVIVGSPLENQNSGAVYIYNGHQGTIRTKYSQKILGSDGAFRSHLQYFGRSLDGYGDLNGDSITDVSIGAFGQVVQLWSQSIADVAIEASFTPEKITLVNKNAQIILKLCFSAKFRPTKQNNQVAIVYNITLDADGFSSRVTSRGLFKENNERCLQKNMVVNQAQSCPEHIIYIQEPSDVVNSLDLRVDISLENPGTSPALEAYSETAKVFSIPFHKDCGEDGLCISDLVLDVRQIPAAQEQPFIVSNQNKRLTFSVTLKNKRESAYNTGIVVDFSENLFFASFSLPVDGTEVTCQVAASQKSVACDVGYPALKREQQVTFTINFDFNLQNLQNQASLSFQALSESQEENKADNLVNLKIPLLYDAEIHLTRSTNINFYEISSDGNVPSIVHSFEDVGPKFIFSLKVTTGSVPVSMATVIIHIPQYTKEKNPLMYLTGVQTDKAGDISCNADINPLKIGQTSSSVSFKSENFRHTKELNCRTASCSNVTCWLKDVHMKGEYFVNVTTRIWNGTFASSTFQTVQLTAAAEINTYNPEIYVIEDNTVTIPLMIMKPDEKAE
T1 sequence (P05556 21-728): as the sequence (P05556 21-728) above
T4 sequence (O75578 23-1120): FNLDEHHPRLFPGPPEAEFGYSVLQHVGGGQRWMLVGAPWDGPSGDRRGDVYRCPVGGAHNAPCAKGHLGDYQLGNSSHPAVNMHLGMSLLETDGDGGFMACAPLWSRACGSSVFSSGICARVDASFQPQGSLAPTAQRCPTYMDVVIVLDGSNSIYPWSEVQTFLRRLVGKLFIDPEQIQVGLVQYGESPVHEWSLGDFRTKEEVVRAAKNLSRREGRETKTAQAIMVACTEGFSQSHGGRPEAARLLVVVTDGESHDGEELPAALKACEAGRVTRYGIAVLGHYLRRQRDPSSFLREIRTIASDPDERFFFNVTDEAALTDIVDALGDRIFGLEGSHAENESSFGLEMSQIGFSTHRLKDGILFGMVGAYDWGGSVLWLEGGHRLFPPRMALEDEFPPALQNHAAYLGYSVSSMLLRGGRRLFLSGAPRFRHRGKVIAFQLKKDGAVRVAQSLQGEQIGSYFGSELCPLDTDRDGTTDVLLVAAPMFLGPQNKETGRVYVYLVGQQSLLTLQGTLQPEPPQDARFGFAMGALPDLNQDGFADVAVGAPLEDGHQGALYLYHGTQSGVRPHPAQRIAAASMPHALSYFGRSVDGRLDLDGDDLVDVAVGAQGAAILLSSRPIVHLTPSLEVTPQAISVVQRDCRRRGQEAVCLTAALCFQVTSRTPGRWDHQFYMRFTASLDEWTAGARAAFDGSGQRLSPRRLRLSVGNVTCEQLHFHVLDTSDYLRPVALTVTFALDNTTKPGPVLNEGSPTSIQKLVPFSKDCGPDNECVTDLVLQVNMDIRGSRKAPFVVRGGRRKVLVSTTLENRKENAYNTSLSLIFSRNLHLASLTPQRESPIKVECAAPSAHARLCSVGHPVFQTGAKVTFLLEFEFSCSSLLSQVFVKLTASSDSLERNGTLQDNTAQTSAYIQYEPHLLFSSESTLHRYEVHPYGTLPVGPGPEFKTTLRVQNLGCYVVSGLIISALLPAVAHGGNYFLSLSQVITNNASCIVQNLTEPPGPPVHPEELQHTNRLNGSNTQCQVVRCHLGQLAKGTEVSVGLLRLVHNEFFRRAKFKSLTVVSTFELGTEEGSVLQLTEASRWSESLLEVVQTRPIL
T4 sequence (P05556 21-728): as the sequence (P05556 21-728) above

In the case of `O=C(O)[C@H](Cc1ccc(OC(=O)N2CCCC2)cc1)NC(=O)[C@@H]1CCCN1S(=O)(=O)c1ccccc1` [BOP, N-(Benzenesulfonyl)-L-prolyl-L-O-(1-pyrrolidinylcarbonyl)tyrosine], the IC50 (integrin α2β1 ectodomain) is reported as 16.2 nM, the IC50 [1] is reported as 118 nM and the IC50 (integrin α1β1 ectodomain) is reported as 80.7 nM. For the same compound, the IC50 [2] was 25.3 nM and the IC50 (integrin α3β1) was 31.2 nM.
